Experimental data published in PubChem BioAssay (NCI).
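Values below derive from 48-hour exposures of cells grown in 96-well plates, with endpoints linearly interpolated between the two concentrations bracketing the appropriate inhibition level. The concentration for 50% growth inhibition is given as GI50. TGI: concentration producing complete growth inhibition.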

Experiments:
Assay in all cases: growth of human tumour cells (NCI), 48 h
DU-145 prostate = tested on: DU-145 prostate
EKVX NSCLC = tested on: EKVX NSCLC
HS 578T breast = tested on: HS 578T breast
HT29 colon = tested on: HT29 colon
LOX IMVI melanoma = tested on: LOX IMVI melanoma
M14 melanoma = tested on: M14 melanoma
NCI-H226 lung = tested on: NCI-H226 lung
OVCAR-3 ovarian = tested on: OVCAR-3 ovarian
OVCAR-8 ovarian = tested on: OVCAR-8 ovarian
SR leukemia = tested on: SR leukemia

Row | SMILES | GI50 (DU-145 prostate) | TGI (DU-145 prostate) | GI50 (EKVX NSCLC) | TGI (EKVX NSCLC) | GI50 (HS 578T breast) | TGI (HS 578T breast) | GI50 (HT29 colon) | TGI (HT29 colon) | GI50 (LOX IMVI melanoma) | TGI (LOX IMVI melanoma) | GI50 (M14 melanoma) | TGI (M14 melanoma) | GI50 (NCI-H226 lung) | TGI (NCI-H226 lung) | GI50 (OVCAR-3 ovarian) | TGI (OVCAR-3 ovarian) | GI50 (OVCAR-8 ovarian) | TGI (OVCAR-8 ovarian) | TGI (SR leukemia) | GI50 (SR leukemia)
1 | Nc1nc(-n2c(-c3ccccc3)nc3c(Br)cc(Br)cc3c2=O)nnc1-c1cccc(Cl)c1Cl | 27.3 µM | > 100 µM | 20.2 µM | > 100 µM | 5.02 µM | 41 µM | 4.82 µM | > 100 µM | 4.06 µM | 37.2 µM | 2.64 µM | 8.42 µM | 24.1 µM | > 100 µM | 6.84 µM | 53.6 µM | 17.2 µM | > 100 µM |  | 
2 | CCC[CH2][Sn]([CH2]CCC)([S]c1cccc2cccnc12)[S]c1cccc2cccnc12 |  |  | 0.336 µM | 1.45 µM |  |  | 0.138 µM | 0.335 µM | 0.175 µM | 0.359 µM | 0.175 µM | 0.339 µM |  |  | 0.0703 µM | 0.228 µM | 0.283 µM | 1.16 µM |  | 
3 | Cc1cc(N(CCC#N)CCC#N)ccc1N=Nc1ccc(S(N)(=O)=O)cc1 |  |  |  | > 100 µM |  |  |  | > 100 µM |  | > 100 µM |  | > 100 µM |  | > 100 µM |  | > 100 µM |  | > 100 µM |  | 
4 | CNC(=S)OCCC(C)CCCC(C)C (stereo unspecified) |  |  |  | 31.7 µM |  |  |  | 31.3 µM |  | 26.2 µM |  | 35.2 µM |  |  |  |  |  | 31.5 µM | 31.9 µM | 
5 | COc1ccc(CC2c3cc4c(cc3CCN2C)OCO4)c(C=O)c1OC (stereo unspecified) |  | > 100 µM |  | > 100 µM |  | > 100 µM |  | > 100 µM |  | > 100 µM |  | > 100 µM |  | > 100 µM |  | > 100 µM |  | > 100 µM |  | 
6 | NC(=O)NO.O.O.O.O.O.O.O.O.O.O.O.[Ge].[Ge].[Ge].[Ge].[Ge].[O]=[Ge].[O]=[Ge].[O]=[Ge].[O]=[Ge].[O]=[Ge][OH] |  |  |  | > 100 µM |  |  |  | > 100 µM |  | > 100 µM |  | > 89 µM |  | > 100 µM |  | > 100 µM |  | > 100 µM | > 100 µM | 
7 | CCCCCCCCCCCC(=O)OCCOCCOCCOCCOCCOCc1ccccc1 |  |  |  | > 100 µM |  |  |  | > 100 µM |  | > 100 µM |  | > 100 µM |  | > 100 µM |  | > 100 µM |  | > 100 µM | > 100 µM | 
8 | COc1cc2c(cc1OCCCCN1CCN(CC(=O)Nc3ccc(Cl)cc3C(=O)c3ccccc3Cl)CC1)N=CC1CCCN1C2=O (stereo unspecified) | 0.277 µM | 0.791 µM | 0.375 µM | 1.07 µM |  |  | 0.25 µM | 1.04 µM | 0.203 µM | 0.442 µM |  |  | 0.483 µM | 1.44 µM | 0.197 µM | 0.435 µM | 0.327 µM | 1.09 µM | 0.456 µM | 0.138 µM
9 | CCN(CC)CCSc1c2ccccc2nc2cc(NCC(=O)Nc3ccccc3-c3ccccc3NC(=O)CNc3ccc4c(SCCN(CC)CC)c5ccccc5nc4c3)ccc12 |  |  |  | > 100 µM |  |  |  | > 100 µM |  | > 100 µM |  | > 100 µM |  | > 100 µM |  | > 100 µM |  | > 100 µM | > 100 µM | 
10 | O=C(CCc1nc(=S)[nH][nH]1)Nc1cc(Cl)c(Cl)cc1Cl |  |  |  |  |  |  |  | > 100 µM |  | > 100 µM |  | > 100 µM |  | > 100 µM |  | > 100 µM |  | > 100 µM |  | 
11 | Cc1c(C(=O)CC(=O)C(=O)Nc2ccccc2C(F)(F)F)[n+](=O)c2ccccc2n1[O-] |  |  |  | 49.4 µM |  |  |  | 57.2 µM |  | 63.8 µM |  | 39 µM |  | > 100 µM |  | 8.37 µM |  | 61.3 µM | 26.6 µM | 
12 | C[N+](C)(C)CC(=O)N/N=C(/CC(=O)CC(C1=C(O)c2ccccc2OC1)c1ccccc1)C(=O)Nc1cccc(Cl)c1 (stereo unspecified) |  | > 100 µM |  | > 100 µM |  |  |  | > 100 µM |  | > 100 µM |  | > 100 µM |  | > 100 µM |  | > 100 µM |  | > 100 µM | > 100 µM | 
13 | C=CCO[C@H]1CO[C@H]2[C@@H]1OC[C@@H]2Oc1ccc(Nc2ccnc(Nc3ccc(O[C@H]4CO[C@H]5[C@@H]4OC[C@@H]5OCC=C)c(Cl)c3)n2)cc1Cl | 1.69 µM | 3.13 µM | 1.69 µM | 3.15 µM |  |  | 2.08 µM | 4.99 µM | 1.76 µM | 3.31 µM | 1.77 µM | 3.4 µM | 7.46 µM | 72.3 µM | 1.81 µM | 3.25 µM | 1.93 µM | 5.92 µM |  | 
14 | CO/C(=N\N=C\c1ccc(C(F)(F)F)cc1)c1ccncc1 |  | > 10 µM |  | > 10 µM |  |  |  | > 10 µM |  | > 10 µM |  | > 10 µM |  | > 10 µM |  | > 10 µM |  | > 10 µM | > 10 µM | 
15 | COc1ccccc1N1C(=O)C2c3[nH]c4ccccc4c3C3CCC(C(C)(C)C)CC3C2C1=O (stereo unspecified) |  |  |  | > 100 µM |  |  |  | > 100 µM |  |  |  | > 100 µM |  | > 100 µM |  |  |  | > 100 µM | > 100 µM | 
16 | Cc1ccc(S(=O)(=O)OC[C@@H]2CO2)cc1 |  |  |  | > 100 µM |  |  |  | > 100 µM |  | > 100 µM |  | > 100 µM |  | > 100 µM |  | > 100 µM |  | > 100 µM | > 100 µM | 
17 | Nc1ccccc1S(=O)(=O)N(CC(=O)O)c1ccccc1 |  |  |  | > 100 µM |  |  |  | > 100 µM |  | > 100 µM |  | > 100 µM |  |  |  |  |  | > 100 µM |  | 
18 | CC1CCc2nc[nH]c(=O)c21 (stereo unspecified) | > 100 µM | > 100 µM |  |  | > 100 µM | > 100 µM | > 100 µM | > 100 µM | > 100 µM | > 100 µM | > 100 µM | > 100 µM | > 100 µM | > 100 µM | > 100 µM | > 100 µM | > 100 µM | > 100 µM |  | 
19 | NC1=NCCC1(c1ccccc1)c1ccccn1 (stereo unspecified) |  |  |  | > 100 µM |  |  |  | > 100 µM |  |  |  | > 100 µM |  | > 100 µM |  | > 100 µM |  | > 100 µM |  | 
20 | OCC1=CC(NC2CC(CO)C(O)C(O)C2O)C(O)C(O)C1O (stereo unspecified) |  |  |  | > 100 µM |  |  |  | > 100 µM |  | > 100 µM |  | > 100 µM |  | > 100 µM |  | > 100 µM |  | > 100 µM |  | 
21 | CCOC(=O)CCC1(C(=O)OCC)CCCCC1=O (stereo unspecified) |  |  |  | > 100 µM |  |  |  | > 100 µM |  | > 100 µM |  |  |  |  |  | > 100 µM |  | > 100 µM |  | 
22 | CN(C)N=Nc1ccc(C(N)=O)cc1 |  |  |  | > 100 µM |  |  |  | > 100 µM |  | > 100 µM |  | > 100 µM |  | > 100 µM |  | > 100 µM |  | > 100 µM | > 100 µM | 
